# Source: ChEMBL document CHEMBL1201862, “PubChem BioAssay data set” (2004)
# Active and inactive are the calls of the source.
# Columns and labels:
# [1] = test system: HeLa; assay: HeLa cell cytotoxicity, dose response, cytotoxicity control for MITF activator project, CellTiter-Glo luminescence, cherry-pick samples (AID 540259); format: functional, cell-based; details: Homo sapiens
# [2] = biological target: Cytochrome P450 2C9 (Homo sapiens, UniProt P11712)
# [3] = biological target: Phospholipase A2 (Homo sapiens, UniProt P04054); format: functional;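 also: confirmatory dose-response counterscreen on phospholipase A2, testing hits that came from an ultra-high-throughput screen for ATG4B inhibitors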
# [4] = biological target: T1, Cysteine protease ATG4B (Homo sapiens, UniProt Q9Y4P1); format: functional;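 also: Fluorescence-based dose-response confirmation assay measuring inhibition of ATG4B activity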
# T1 sequence (Q9Y4P1 whole entry): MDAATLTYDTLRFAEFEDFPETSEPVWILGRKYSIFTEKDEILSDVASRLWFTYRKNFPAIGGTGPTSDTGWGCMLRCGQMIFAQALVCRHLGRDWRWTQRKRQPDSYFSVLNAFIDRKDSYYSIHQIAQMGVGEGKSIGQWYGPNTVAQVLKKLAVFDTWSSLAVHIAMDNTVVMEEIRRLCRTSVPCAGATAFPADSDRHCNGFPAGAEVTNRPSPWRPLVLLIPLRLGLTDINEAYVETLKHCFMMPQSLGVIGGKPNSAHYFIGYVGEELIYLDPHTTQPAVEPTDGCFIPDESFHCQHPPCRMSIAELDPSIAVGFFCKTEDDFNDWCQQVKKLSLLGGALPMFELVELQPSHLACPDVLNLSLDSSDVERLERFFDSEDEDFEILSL
# [5] = biological target: T2, Fatty acid synthase (Homo sapiens, UniProt P49327); assay: FAS thioesterase domain inhibitors, dose response, biochemical, endpoint fluorescence intensity, uHTS hits (AID 624327); format: functional;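 also: fluorescence from hydrolysis of an O-methyl fluorescein acyl ester substrate by the enzyme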
# [6] = HEp-2 cell cytotoxicity, dose response, cytotoxicity control for RSV inhibitor project, HTS (AID 2410); format: functional; details: human respiratory syncytial virus
# [7] = test system: Vero; assay: cells; format: functional; details: Chlorocebus sabaeus
# [8] = test system: HEK293; assay: inhibitors of LMP1-driven NF-kB reporter, dose response, cell-based, HEK293, luciferase, cherry-pick (AID 588343); format: functional; details: Homo sapiens
# [9] = cells
# [10] = test system: Vero; assay: cells; format: functional, cell-based; details: Chlorocebus sabaeus
# [11] = biological target: T2, Fatty acid synthase; assay: FAS thioesterase domain inhibitors, dose response, biochemical, kinetic fluorescence intensity (AID 624326); format: functional;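 also: rate of fluorescence rise from hydrolysis of a fluorogenic O-methyl fluorescein ester substrate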
# [12] = test system: Escherichia coli; assay: microbe, parasite or virus in culture
# [13] = growth suppression of beta-catenin-knockout colon cells, dose response, cell-based, HCT116, human colon tumor (AID 1045); format: functional;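 also: HCT116 colon tumor cells with beta catenin knocked out; cells exposed to compound for 60 hours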
# [14] = growth suppression of PTEN-null colon cells, dose response, cell-based, HCT116 PTEN knockout (AID 1047); format: functional;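 also: HCT116 colon tumor cells with PTEN knocked out; cells exposed to compound for 60 hours before readout; potency for loss of cell viability measured by luminescence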
# [15] = biological target: T3, Endoribonuclease toxin MazF (Escherichia coli K-12, UniProt P0AE70); assay: MazF toxin RNase activators, dose response, biochemical, fluorescence, single-stranded RNA substrate, uHTS hits (AID 588481); format: functional
# T3 sequence (P0AE70 whole entry): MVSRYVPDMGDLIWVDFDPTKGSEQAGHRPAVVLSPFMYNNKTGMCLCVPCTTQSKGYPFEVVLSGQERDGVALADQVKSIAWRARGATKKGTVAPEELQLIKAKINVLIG
# [16] = biological target: T4, Polyadenylate-binding protein 1 (Homo sapiens, UniProt P11940); assay: PABP1 MLLE–PAM2 binding inhibitor potency, dose response, biochemical, fluorescence polarization, FITC-PAM2 peptide (AID 602259); format: functional; details: read-out: IC50_Mean
# [17] = biological target: T4, Polyadenylate-binding protein 1; assay: PABP1 MLLE–PAM2 interaction inhibitors, dose response, miRNA deadenylation inhibitor project, biochemical, fluorescence polarization, Cy5-PAM2 peptide, secondary (AID 602260); format: functional; details: read-out: IC50_Mean
# [18] = biological target: T3, Endoribonuclease toxin MazF; assay: fluorescent RNA oligo signal without MazF, dose response, counter-screen for MazEF activator project, biochemical, fluorescence, single-stranded RNase substrate (AID 588502); format: functional
# [19] = biological target: Heat shock protein HSP 90-alpha (Homo sapiens, UniProt P07900); format: functional, organism-based
# [20] = biological target: Prothrombin (Homo sapiens, UniProt P00734); assay: Thrombin 1536 HTS Dose Response Confirmation. [Related pubchem assays: 1046 (Thrombin 1536 HTS; hits were confirmed in this assay)]; format: functional
# [21] = biological target: T5, Caspase-3 (Homo sapiens, UniProt P42574); format: functional;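 also: Dose-response selectivity test against caspase-3 for candidate inhibitors of sentrin-specific proteases (SENPs)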
# T5 sequence (P42574 whole entry): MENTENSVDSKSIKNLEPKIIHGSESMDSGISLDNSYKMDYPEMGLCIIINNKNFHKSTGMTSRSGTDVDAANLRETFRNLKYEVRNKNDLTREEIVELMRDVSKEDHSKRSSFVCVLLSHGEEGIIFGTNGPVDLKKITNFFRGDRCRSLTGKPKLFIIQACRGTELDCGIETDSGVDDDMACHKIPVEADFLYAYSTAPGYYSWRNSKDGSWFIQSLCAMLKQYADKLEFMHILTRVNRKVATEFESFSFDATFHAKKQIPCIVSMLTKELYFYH
# [22] = Luminescence Cell-Based Dose Confirmation HTS to Identify Inhibitors of Platelet Dense Granule Release. [Related pubchem assays: 1663 (Primary HTS), 1678 (Summary of Project)]; format: functional
# [23] = biological target: Luciferin 4-monooxygenase (Photinus pyralis, UniProt P08659); assay: firefly luciferase enzyme inhibitors, dose response, biochemical, luminescence (AID 1891)
# [24] = biological target: T6, Sentrin-specific protease 6 (Homo sapiens, UniProt Q9GZR1); format: functional;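 also: Luminescence-based dose-response confirmatory assay of SENP6 inhibition, following up an ultra-high-throughput screen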
# T6 sequence (Q9GZR1 whole entry): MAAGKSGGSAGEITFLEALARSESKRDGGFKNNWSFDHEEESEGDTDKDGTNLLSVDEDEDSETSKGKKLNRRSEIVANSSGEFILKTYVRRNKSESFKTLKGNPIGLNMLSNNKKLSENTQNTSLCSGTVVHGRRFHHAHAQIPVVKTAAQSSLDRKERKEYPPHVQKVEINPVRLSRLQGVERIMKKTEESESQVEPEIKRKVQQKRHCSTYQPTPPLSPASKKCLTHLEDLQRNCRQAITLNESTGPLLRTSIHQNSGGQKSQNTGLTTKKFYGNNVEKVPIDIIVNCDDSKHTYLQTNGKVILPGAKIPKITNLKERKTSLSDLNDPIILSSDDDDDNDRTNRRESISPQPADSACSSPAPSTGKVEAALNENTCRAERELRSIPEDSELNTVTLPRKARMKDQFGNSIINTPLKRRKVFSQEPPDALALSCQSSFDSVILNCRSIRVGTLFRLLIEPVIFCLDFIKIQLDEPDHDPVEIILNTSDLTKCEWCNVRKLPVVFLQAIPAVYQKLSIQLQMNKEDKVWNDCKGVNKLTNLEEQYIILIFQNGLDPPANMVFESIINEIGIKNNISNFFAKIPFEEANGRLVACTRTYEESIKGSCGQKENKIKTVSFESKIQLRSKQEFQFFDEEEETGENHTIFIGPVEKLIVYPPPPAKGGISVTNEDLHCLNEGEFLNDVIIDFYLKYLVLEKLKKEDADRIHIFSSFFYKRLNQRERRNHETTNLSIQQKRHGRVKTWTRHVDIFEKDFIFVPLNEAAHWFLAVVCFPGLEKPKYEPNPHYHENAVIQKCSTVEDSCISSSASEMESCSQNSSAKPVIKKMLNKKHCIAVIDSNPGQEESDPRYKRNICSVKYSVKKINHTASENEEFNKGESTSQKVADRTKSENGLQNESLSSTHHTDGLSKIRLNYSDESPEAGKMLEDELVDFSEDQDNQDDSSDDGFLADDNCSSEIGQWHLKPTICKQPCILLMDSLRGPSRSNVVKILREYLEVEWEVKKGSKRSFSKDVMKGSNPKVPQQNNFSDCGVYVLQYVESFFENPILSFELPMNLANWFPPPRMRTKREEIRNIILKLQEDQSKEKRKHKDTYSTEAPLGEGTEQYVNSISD
# [25] = biological target: T7, Sentrin-specific protease 7 (Homo sapiens, UniProt Q9BQF6); format: functional;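 also: Luminescence-based dose-response confirmation of ultra-high-throughput screening hits, measuring inhibition of SENP7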
# T7 sequence (Q9BQF6 whole entry): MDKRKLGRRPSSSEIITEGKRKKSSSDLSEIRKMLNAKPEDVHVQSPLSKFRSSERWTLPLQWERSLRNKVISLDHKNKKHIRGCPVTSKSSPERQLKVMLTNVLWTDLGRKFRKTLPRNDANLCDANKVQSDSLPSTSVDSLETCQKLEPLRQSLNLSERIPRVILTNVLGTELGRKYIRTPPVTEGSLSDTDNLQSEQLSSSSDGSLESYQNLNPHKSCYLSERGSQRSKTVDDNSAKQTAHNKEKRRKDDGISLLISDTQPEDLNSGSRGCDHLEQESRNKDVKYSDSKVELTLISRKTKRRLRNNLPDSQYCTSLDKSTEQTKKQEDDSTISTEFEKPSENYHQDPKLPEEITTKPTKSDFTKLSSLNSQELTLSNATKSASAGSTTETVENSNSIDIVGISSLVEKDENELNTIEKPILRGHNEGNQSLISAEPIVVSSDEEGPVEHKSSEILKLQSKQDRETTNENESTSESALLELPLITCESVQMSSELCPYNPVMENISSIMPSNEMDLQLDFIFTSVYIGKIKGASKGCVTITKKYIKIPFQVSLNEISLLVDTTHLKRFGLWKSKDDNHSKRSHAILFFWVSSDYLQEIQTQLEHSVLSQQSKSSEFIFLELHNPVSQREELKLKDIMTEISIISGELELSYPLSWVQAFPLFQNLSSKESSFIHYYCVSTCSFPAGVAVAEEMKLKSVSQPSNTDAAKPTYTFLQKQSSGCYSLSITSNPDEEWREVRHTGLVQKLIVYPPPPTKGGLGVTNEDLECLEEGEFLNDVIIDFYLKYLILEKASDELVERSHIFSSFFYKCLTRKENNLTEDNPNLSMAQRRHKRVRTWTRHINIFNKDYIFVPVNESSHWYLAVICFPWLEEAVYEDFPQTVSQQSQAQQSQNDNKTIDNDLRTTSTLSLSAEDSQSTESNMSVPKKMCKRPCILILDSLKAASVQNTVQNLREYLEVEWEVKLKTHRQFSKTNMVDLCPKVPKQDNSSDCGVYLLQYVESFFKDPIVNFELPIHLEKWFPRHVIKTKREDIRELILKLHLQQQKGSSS
# [26] = biological target: T8, Sentrin-specific protease 8 (Homo sapiens, UniProt Q96LD8); format: functional;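 also: luminescence read-out of SENP8 inhibition, dose-response confirmation following an ultra-high-throughput screen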
# T8 sequence (Q96LD8 whole entry): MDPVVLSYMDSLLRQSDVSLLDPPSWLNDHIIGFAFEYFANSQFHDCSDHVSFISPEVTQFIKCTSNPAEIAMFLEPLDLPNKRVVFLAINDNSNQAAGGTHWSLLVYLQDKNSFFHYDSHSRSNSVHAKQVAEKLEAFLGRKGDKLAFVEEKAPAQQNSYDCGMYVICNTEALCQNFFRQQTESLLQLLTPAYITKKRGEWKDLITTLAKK
# Chain of Phospholipase A2 (P04054 whole entry): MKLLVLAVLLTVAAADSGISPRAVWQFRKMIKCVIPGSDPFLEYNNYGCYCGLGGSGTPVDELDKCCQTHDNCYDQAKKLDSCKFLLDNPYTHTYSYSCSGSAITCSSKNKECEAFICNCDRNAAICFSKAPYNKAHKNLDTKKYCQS
# T4 sequence (P11940 whole entry): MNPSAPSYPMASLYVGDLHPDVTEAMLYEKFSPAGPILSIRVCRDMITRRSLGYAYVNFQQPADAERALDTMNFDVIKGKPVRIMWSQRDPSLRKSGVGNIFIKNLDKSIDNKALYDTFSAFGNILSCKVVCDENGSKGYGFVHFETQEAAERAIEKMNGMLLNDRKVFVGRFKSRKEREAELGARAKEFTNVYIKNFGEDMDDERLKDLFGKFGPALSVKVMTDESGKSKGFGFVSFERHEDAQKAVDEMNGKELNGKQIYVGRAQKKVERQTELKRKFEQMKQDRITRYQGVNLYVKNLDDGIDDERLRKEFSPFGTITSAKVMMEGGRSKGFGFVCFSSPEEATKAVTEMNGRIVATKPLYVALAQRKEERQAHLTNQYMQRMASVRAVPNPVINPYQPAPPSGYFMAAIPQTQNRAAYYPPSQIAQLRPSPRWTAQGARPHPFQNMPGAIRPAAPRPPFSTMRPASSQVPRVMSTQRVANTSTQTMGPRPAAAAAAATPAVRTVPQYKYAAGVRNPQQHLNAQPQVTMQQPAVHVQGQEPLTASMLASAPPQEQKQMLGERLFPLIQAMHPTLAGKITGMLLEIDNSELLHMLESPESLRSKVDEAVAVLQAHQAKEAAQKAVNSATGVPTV
# T2 sequence (P49327 whole entry, the tested form may be a part): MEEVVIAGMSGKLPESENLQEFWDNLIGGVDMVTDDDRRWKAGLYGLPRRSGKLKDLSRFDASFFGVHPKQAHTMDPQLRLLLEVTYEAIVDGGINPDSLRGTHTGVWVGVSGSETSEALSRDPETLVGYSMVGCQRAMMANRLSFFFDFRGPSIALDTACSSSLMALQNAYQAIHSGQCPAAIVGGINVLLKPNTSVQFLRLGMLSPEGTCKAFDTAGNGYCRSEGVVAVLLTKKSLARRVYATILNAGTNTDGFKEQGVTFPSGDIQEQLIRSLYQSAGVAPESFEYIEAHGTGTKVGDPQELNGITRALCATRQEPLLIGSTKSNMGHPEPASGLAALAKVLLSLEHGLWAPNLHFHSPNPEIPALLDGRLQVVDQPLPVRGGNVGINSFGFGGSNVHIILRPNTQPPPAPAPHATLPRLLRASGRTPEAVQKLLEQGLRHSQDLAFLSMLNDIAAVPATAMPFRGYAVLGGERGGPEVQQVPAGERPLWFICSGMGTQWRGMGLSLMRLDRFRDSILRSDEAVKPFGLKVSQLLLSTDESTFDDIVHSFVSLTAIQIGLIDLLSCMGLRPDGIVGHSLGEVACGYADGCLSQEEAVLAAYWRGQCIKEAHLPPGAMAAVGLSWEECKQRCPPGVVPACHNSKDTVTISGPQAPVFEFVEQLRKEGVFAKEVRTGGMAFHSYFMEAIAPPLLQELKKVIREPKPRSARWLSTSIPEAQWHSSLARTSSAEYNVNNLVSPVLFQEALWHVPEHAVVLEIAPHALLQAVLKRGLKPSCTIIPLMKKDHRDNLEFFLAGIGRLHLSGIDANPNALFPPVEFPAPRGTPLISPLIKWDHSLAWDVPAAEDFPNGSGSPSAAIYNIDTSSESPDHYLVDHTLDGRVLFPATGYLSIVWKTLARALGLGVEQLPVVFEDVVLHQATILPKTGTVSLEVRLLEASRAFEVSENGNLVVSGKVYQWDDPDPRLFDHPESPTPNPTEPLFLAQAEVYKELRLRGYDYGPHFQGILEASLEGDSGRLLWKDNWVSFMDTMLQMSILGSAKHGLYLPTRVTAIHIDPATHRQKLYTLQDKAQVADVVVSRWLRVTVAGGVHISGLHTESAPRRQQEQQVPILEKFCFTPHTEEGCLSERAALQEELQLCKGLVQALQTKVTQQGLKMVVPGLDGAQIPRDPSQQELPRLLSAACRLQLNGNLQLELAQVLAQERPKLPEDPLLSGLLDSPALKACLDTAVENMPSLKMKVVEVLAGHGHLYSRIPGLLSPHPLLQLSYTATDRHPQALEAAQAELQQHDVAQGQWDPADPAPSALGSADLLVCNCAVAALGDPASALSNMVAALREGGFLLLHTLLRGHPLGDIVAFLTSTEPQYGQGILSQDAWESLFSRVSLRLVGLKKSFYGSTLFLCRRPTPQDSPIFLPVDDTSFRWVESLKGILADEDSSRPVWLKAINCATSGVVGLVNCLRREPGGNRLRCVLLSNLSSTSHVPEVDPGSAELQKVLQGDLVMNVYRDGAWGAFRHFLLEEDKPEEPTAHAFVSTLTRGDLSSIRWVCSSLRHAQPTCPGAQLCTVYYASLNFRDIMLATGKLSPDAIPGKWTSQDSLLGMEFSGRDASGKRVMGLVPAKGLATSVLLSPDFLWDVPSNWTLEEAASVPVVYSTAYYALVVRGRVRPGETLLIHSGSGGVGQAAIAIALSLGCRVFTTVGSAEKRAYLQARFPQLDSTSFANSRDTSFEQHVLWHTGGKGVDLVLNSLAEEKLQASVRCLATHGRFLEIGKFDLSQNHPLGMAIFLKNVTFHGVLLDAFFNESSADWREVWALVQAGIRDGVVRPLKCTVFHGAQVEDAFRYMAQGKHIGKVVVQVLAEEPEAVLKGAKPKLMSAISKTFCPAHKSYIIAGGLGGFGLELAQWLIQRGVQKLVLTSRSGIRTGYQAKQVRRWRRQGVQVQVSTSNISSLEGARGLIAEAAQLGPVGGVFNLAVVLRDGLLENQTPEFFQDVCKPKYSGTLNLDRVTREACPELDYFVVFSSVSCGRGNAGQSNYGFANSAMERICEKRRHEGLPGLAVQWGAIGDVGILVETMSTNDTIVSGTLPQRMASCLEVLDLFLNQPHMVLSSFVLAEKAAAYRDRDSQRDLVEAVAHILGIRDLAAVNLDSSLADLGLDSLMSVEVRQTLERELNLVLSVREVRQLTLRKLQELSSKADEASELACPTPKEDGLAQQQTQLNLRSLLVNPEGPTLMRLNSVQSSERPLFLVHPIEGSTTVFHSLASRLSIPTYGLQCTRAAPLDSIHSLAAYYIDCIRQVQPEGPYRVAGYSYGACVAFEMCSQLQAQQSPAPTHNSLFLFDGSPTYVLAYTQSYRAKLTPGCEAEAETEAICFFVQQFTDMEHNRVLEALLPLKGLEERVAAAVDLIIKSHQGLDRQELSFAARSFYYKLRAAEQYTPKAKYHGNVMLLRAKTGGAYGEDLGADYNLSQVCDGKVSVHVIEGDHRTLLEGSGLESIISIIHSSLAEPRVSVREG
# Chain of Cytochrome P450 2C9 (P11712 whole entry): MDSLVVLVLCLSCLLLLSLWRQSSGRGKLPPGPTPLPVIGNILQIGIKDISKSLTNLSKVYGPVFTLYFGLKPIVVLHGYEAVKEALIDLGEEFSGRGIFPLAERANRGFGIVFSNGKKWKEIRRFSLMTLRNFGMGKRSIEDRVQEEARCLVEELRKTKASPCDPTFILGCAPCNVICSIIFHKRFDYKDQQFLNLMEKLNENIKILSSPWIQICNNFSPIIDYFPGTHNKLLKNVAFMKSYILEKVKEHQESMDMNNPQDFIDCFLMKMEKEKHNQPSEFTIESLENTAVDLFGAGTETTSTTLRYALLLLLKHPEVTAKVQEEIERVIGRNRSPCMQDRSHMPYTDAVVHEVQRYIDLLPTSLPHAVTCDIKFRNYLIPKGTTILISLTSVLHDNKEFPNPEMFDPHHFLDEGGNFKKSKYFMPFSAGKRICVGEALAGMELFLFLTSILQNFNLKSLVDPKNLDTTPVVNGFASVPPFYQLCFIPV
# Chain of Luciferin 4-monooxygenase (P08659 whole entry): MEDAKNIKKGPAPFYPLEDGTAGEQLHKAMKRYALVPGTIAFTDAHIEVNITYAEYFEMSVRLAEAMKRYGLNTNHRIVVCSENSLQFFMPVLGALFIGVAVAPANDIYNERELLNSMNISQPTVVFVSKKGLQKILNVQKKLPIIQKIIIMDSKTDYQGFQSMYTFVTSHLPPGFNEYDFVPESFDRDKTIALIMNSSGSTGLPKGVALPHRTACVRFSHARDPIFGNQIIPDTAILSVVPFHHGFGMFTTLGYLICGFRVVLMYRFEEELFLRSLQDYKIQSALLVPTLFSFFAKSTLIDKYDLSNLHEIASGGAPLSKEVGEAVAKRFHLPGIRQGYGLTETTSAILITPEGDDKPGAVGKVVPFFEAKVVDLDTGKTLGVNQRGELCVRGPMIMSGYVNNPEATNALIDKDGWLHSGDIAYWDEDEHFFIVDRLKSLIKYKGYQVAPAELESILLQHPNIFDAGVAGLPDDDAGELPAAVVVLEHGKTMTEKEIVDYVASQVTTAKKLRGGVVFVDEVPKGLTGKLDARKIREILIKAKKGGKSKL
smiles,measurement,setting,value
CC(C)Cc1cc(C(=O)Nc2ccc(Br)cc2)no1,AC50,[1],113 µM (active)
O=C(NCc1cccc(C(F)(F)F)c1)c1cc(Cl)cc(Cl)c1,AC50,[2],inconclusive
same,IC50,[3],2.38 µM (active)
same,IC50,[4],41 µM (inactive)
O=C(NC(Cc1c[nH]c2ccccc12)C(=O)Nc1ccc(F)c([N+](=O)[O-])c1)c1cccs1 (stereo not drawn),IC50,[5],7.53 µM (active)
same,CC50,[6],13.1 µM (active)
same,CC50,[7],18.5 µM (active)
same,AC50,[8],1.37 µM (active)
same,IC50,[9],10.2 µM (active)
same,IC50,[10],22.4 µM (active)
same,IC50,[11],3.78 µM (active)
C=CCn1c(SCc2cc(C(C)=O)ccc2OCC)nc2ccccc2c1=O,IC50,[3],1.3 µM (active)
same,IC50,[4],5.1 µM (active)
CCc1ccc(NC(=O)C(S)=NC2CCCCC2)cc1,AC50,[1],182 µM (active)
O=C(c1cccc(COc2cccc3ccccc23)c1)N1CCCC1,CC50,[6],21.3 µM (active)
same,CC50,[7],> 25 µM (active)
same,IC50,[9],> 50 µM (active)
same,IC50,[10],> 25 µM (active)
O=C(NCc1cccc(C(F)(F)F)c1)N1CCN(S(=O)(=O)c2ccccc2F)CC1,IC50,[3],7.61 µM (active)
same,IC50,[4],12.5 µM (active)
Cc1ccccc1OCC(=O)Nc1ccc(S(=O)(=O)Nc2onc(C)c2C)cc1,AC50,[12],39.2 µM (active)
COc1cccc(CN(C(=O)Cc2c[nH]c3ccccc23)C(C(=O)NC2CCCCC2)c2ccc(C)o2)c1 (stereo not drawn),EC50,[13],22.3 µM (active)
same,AC50,[12],44.4 µM (active)
same,EC50,[14],19.9 µM (active)
Fc1ccccc1CSc1ncnc2c1ncn2C1CCCO1 (stereo not drawn),IC50,[10],8.43 µM (active)
CCOC(=O)[C@H]1[C@H]2COc3ccc(Br)cc3[C@H]2N2C(=O)CN(Cc3ccc(C)cc3)C(=O)[C@@]12C,EC50,[15],4.72 µM (active)
same,IC50,[16],49.1 µM (inactive)
same,IC50,[17],> 66 µM (inactive)
same,EC50,[18],> 99 µM (inactive)
Oc1ccc(Cl)cc1/C=C/c1ccc2cccc(O)c2n1,AC50,[19],3.87 µM (active)
same,EC50,[15],44.8 µM (inactive)
same,EC50,[18],> 99 µM (inactive)
same,IC50,[20],> 50 µM (not active)
COc1ccccc1/N=C/c1c(O)oc2ccccc2c1=O,IC50,[21],> 100 µM (inactive)
same,EC50,[22],> 112 µM (not active)
same,EC50,[23],1.3 µM (active)
same,IC50,[24],> 100 µM (inactive)
same,IC50,[25],2.87 µM (active)
same,IC50,[26],> 100 µM (inactive)
CC(C)(C)c1nn2cnnc2n(/N=C/c2cccc3ccccc23)c1=O,AC50,[12],38.5 µM (active)
COc1ccc(C(=O)n2nc(-c3ccco3)nc2SC)cc1OC,EC50,[15],> 99 µM (inactive)
same,EC50,[18],45.8 µM (inactive)
same,IC50,[20],0.204 µM (active)
